In brackets after ≈: the same amount, converted by molar mass.
Assays:
Clostridioides difficile [1] = test: Antibacterial activity against Clostridioides difficile assessed as inhibition of bacterial growth by CLSI based agar dilution susceptibility analysis; format: functional
Bacteroides fragilis = test: Antibacterial activity against Bacteroides fragilis ATCC 25285 assessed as inhibition of bacterial growth by CLSI based agar dilution susceptibility analysis; format: functional
[2] = Selectivity ratio of MIC for Bacteroides fragilis ATCC 25285 to MIC for Clostridioides difficile; format: functional
Clostridioides difficile [3] = test: Antibacterial activity against Clostridioides difficile SM8-6865 in CDAD golden hamster model assessed as protection from lethal infection at 0.39 o 1.56 mg/kg, po administered twice daily for 4 days; format: functional; details: time 4 day
Clostridioides difficile [4] = test: Antibacterial activity against Clostridioides difficile SM8-6865 in CDAD golden hamster model assessed as log reduction in cecum bacterial content at 6.25 mg/kg, po administered twice daily for 4 days; format: functional; details: time 4 day
Clostridioides difficile [5] = test: Antibacterial activity against Clostridioides difficile SM8-6865 in CDAD golden hamster model assessed as protection from lethal infection at 6.25 mg/kg, po administered twice daily for 4 days; format: functional; details: time 4 day
[6] = Drug concentration in golden hamster caecum at 6.25 mg/kg, po measured after 24 hrs by LC-MS/MS analysis; format: ADME, organism-based, Mesocricetus auratus; details: read-out: Ct
[7] = Drug concentration in golden hamster caecum at 6.25 mg/kg, po measured after 1 hr by LC-MS/MS analysis; format: ADME, organism-based, Mesocricetus auratus; details: read-out: Ct
Clostridioides difficile [8] = test: Antibacterial activity against Clostridioides difficile SM8-6865 in CDAD golden hamster model assessed as log reduction in cecum bacterial content at 1.56 mg/kg, po administered twice daily for 4 days; format: functional; details: time 4 day
Clostridioides difficile [9] = test: Antibacterial activity against Clostridioides difficile assessed as inhibition of bacterial growth incubated for 18 to 24 hrs by broth microdilution method; format: functional; details: time 18-24 hrs
Clostridioides difficile [10] = test: Antibacterial activity against Clostridioides difficile SM8-6865 in CDAD golden hamster model assessed as protection from lethal infection at 1.56 mg/kg, po administered twice daily for 4 days; format: functional; details: time 4 day
[11] = Toxicity in Clostridioides difficile SM8-6865 infected golden hamster model assessed as survival at 1.56 mg/kg, po administered once daily for 4 days; format: organism-based, Mesocricetus auratus; details: in vivo, 96 h, time 4 day
Clostridioides difficile [12] = test: Antibacterial activity against Clostridioides difficile SM8-6865 in CDAD golden hamster model assessed as log reduction in cecum bacterial content at 1.56 mg/kg, po administered once daily for 4 days; format: functional; details: time 4 day
Clostridioides difficile [13] = test: Antibacterial activity against Clostridioides difficile SM8-6865 in CDAD golden hamster model assessed as protection from lethal infection at 1.56 mg/kg, po administered once daily for 4 days; format: functional; details: time 4 day

`CO/C(C)=C1/NC(=O)[C@H]([C@@H](C)O)NC(=O)c2csc(n2)-c2cc(OC)c(-c3nc(C(=O)NCCCN4CCOCC4)cs3)nc2-c2csc(n2)[C@@H]2COC(=O)c3c4c5c(cccc5n3O)COC(=O)[C@@H](O[C@H]3C[C@](C)(O)[C@H](N(C)C)[C@H](C)O3)[C@@H](OC4)[C@H](NC(=O)c3csc1n3)c1nc(cs1)C(=O)N2` showed an MIC50 (Clostridioides difficile [1]) of at most 0.015 µg/mL, an MIC (Bacteroides fragilis) of 4 µg/mL (≈ 2.65 µM) and a Selectivity ratio [2] of 100.
`CO/C(C)=C1/NC(=O)[C@H]([C@@H](C)O)NC(=O)c2csc(n2)-c2cc(O)c(-c3nc(C(=O)NCCCN4CCOCC4)cs3)nc2-c2csc(n2)[C@@H]2COC(=O)c3c4c5c(cccc5n3O)COC(=O)[C@@H](O[C@H]3C[C@](C)(O)[C@H](N(C)C)[C@H](C)O3)[C@@H](OC4)[C@H](NC(=O)c3csc1n3)c1nc(cs1)C(=O)N2` showed an MIC50 (Clostridioides difficile [1]) of 0.03 µg/mL (≈ 0.0201 µM), an Activity (Clostridioides difficile [3]) of 16% and an Activity (Clostridioides difficile [4]) of over 5 log10CFU/g. The MIC (Bacteroides fragilis) was 4 µg/mL (≈ 2.67 µM), the Selectivity ratio [2] was 100 and the Activity (Clostridioides difficile [5]) was 100%. For the same molecule, the concentration at 24 h [6] was 80 nM and the concentration at 1 h [7] was 6560 nM.
`CCc1c(Cl)c(O)c(Cl)c(O)c1C(=O)O[C@H]1[C@H](O)[C@H](OC)[C@H](OC/C2=C\C=C\C[C@H](O)/C(C)=C/[C@H](CC)[C@@H](O[C@@H]3OC(C)(C)[C@@H](OC(=O)C(C)C)[C@H](O)[C@@H]3O)/C(C)=C/C(C)=C/C[C@@H]([C@@H](C)O)OC2=O)O[C@@H]1C` [FIDAXOMICIN] showed an MIC50 (Clostridioides difficile [1]) of 0.5 µg/mL (≈ 0.473 µM) and an MIC (Bacteroides fragilis) of over 16 µg/mL.
In the case of `Cc1ncc([N+](=O)[O-])n1CCO` [METRONIDAZOLE], the MIC50 (Clostridioides difficile [1]) is reported as at most 0.015 µg/mL and the MIC (Bacteroides fragilis) is reported as over 16 µg/mL.
Work on `C=C(NC(=O)c1csc(-c2nc3c(cc2O)-c2nc(cs2)C(=O)N[C@@H]([C@@H](C)O)C(=O)N/C(=C(\C)OC)c2nc(cs2)C(=O)N[C@@H]2c4nc(cs4)C(=O)N[C@@H](COC(=O)c4c5c6c(cccc6n4O)COC(=O)[C@@H](O[C@H]4C[C@](C)(O)[C@H](N(C)C)[C@H](C)O4)[C@H]2OC5)c2nc-3cs2)n1)C(N)=O` [MJ347-81F4 A] yielded an MIC50 (Clostridioides difficile [1]) of 0.03 µg/mL (≈ 0.0209 µM), an Activity (Clostridioides difficile [4]) of over 5 log10CFU/g and an MIC (Bacteroides fragilis) of 4 µg/mL (≈ 2.78 µM). For the same molecule, the Selectivity ratio [2] was 100, the Activity (Clostridioides difficile [8]) was 4 log10CFU/g and the Activity (Clostridioides difficile [5]) was 100%. The concentration at 24 h [6] was 190 nM, the concentration at 1 h [7] was 5400 nM and the MIC (Clostridioides difficile [9]) was 0.06 µg/mL (≈ 0.0417 µM). For the same molecule, the Activity (Clostridioides difficile [10]) was 66%.
`C=C(NC(=O)c1csc(-c2nc3c(cc2O)-c2nc(cs2)C(=O)N[C@@H]([C@@H](C)O)C(=O)N/C(=C(\C)OC)c2nc(cs2)C(=O)N[C@@H]2c4nc(cs4)C(=O)N[C@@H](COC(=O)c4c5c6c(cccc6n4O)COC(=O)[C@@H](O[C@H]4C[C@]6(C)OCN(C)[C@@H]6[C@H](C)O4)[C@H]2OC5)c2nc-3cs2)n1)C(N)=O` [THIAZOMYCIN] showed an MIC50 (Clostridioides difficile [1]) of 0.06 µg/mL (≈ 0.0418 µM), an MIC (Bacteroides fragilis) of 8 µg/mL (≈ 5.57 µM) and a Selectivity ratio [2] of 100.
In the case of `CN[C@H](CC(C)C)C(=O)N[C@H]1C(=O)N[C@@H](CC(N)=O)C(=O)N[C@H]2C(=O)N[C@H]3C(=O)N[C@H](C(=O)N[C@H](C(=O)O)c4cc(O)cc(O)c4-c4cc3ccc4O)[C@H](O)c3ccc(c(Cl)c3)Oc3cc2cc(c3O[C@@H]2O[C@H](CO)[C@@H](O)[C@H](O)[C@H]2O[C@H]2C[C@](C)(N)[C@H](O)[C@H](C)O2)Oc2ccc(cc2Cl)[C@H]1O` [VANCOMYCIN], the MIC50 (Clostridioides difficile [1]) is reported as 0.25 µg/mL (≈ 0.173 µM), the Activity [11] is reported as “Non-Toxic” and the Activity (Clostridioides difficile [12]) is reported as over 5 log10CFU/g. It also gave an MIC (Bacteroides fragilis) of 0.5 µg/mL (≈ 0.345 µM) and an Activity (Clostridioides difficile [13]) of 100%.

From ChEMBL document CHEMBL5120811, “Nocathiacin, Thiazomycin, and Polar Analogs Are Highly Effective Agents against Toxigenic Clostridioides difficile” (J Nat Prod, 2022)
